{"source": "patent US11434535B2", "about": "“Centromere/kinetochore protein genes for cancer diagnosis, prognosis and treatment selection” (The Regents of the University of California, priority 2014, dated 2022)", "key": {"[1]": {"tested_on": "gastric cancers", "assay": "K-M Plotter meta-analysis on chemo-sensitivity, gastric cancer", "format": "in vivo, human", "conditions": "gastric cancer patients", "source_text": "(§1) To address small sample sizes in individual datasets when predicting drug sensitivity, we performed meta-analysis on chemo-sensitivity for several cancer types using K-M Plotter.\n(§2) For meta-analysis using K-M Plotter for prognosis, we chose to use the top CES terile as high CES group, and the rest as low CES group. For meta-analysis on sensitivity to adjuvant therapies using K-M Plotter, we chose to use automatically computed best performing CES threshold for patient stratification in all dataset to increase detection sensitivity, even though tertile or median method gave similar results with statistical significance for many datasets. The K-M Plotter software only incorporates genes with probes present on both U133A+B to ensure comparability between datasets for meta-analysis, thus it excluded 7 CEN/KT genes including CENP-H, -W, -L, -K, -P, SPC24 and NUF2, of which 5 are also CES genes. Therefore, we used the 9 remaining CES genes, e.g., CENP-A, HJURP, MIS18B, CENP-N, CENP-M, CENP-U, ZWINT, NDC80, and SPC25, as a simplified version of the CES when using K-M Plotter."}, "[2]": {"tested_on": "CCLE (Cancer Cell Line Encyclopedia) cell lines", "assay": "CCLE cell lines: IC50 of Topo I inhibitors versus CES value", "format": "cell-based", "conditions": "CCLE cell lines binned into CES quartiles", "description": "We mined the Cancer Cell Line Encyclopedia (CCLE) data, which contains information on both drug treatment and gene expression (Barretina et al., 2012). CCLE cell lines were binned into quartiles according to their CES values, we compared the top and bottom CES quartiles for the IC50 of the Topo I inhibitors and DNA damaging agents irinotecan and topotecan.\nThe Statistical Analysis of Microarrays (SAM) Excel add-on package (the website at www-stat.stanford.edu/˜tibs/SAM/) was used to identify differences between normal and tumor tissues in expression levels of CEN/KT genes (FDR≤0.05 and fold changes ≥2). Sample clustering was performed on the CEN/KT gene expression profiles using hierarchical clustering in Cluster 3.0 and Java Treeview 1.1.6r4 to group samples by centroid. For CCLE drug sensitivity, analysis was performed in Excel (Microsoft) and GraphPad. Kaplan-Meier survival curves for the CES system were generated for patients to evaluate differences in disease-free survival (DFS), stratified into groups of high (upper tertile), intermediate (middle tertile) and low (lower tertile) CES to evaluate differences in disease-free survival (DFS). […] Five-year survival was analyzed by chi-square test for significance."}, "[3]": {"tested_on": "ER+ breast cancer", "assay": "K-M Plotter meta-analysis on chemo-sensitivity, ER+ breast cancer relapse-free survival", "conditions": "ER+ breast cancer patients under the named therapy", "source_text": "as §1, §2"}, "[4]": {"tested_on": "late stage ovarian cancers", "assay": "K-M Plotter meta-analysis on chemo-sensitivity, ovarian cancer overall survival", "format": "in vivo, human", "conditions": "ovarian cancer patients, mostly late stage, under the named adjuvant therapy", "source_text": "as §1, §2"}}, "note": "Entries after “also recorded” stand apart in the source; their conditions may differ."}
{"compound": "O=c1[nH]cc(F)c(=O)[nH]1", "note": "[5-FU, 5-fluorouracil]", "values": [{"measurement": "prediction power of CES for sensitivity", "setting": "[1]", "value": "no significant prediction power"}]}
{"compound": "CCc1c2c(nc3ccc(OC(=O)N4CCC(N5CCCCC5)CC4)cc13)-c1cc3c(c(=O)n1C2)COC(=O)[C@]3(O)CC", "note": "[irinotecan]", "values": [{"measurement": "average IC50, top CES quartile compared to bottom CES quartile", "setting": "[2]", "value": "significantly lower IC50s; also recorded: significantly more sensitive"}]}
{"compound": "CC/C(=C(\\c1ccccc1)c1ccc(OCCN(C)C)cc1)c1ccccc1", "note": "[tamoxifen]", "values": [{"measurement": "HR associated with high CES, relapse-free survival (RFS)", "setting": "[3]", "value": 1.80}]}
{"compound": "CC[C@@]1(O)C(=O)OCc2c1cc1n(c2=O)Cc2cc3c(CN(C)C)c(O)ccc3nc2-1", "note": "[topotecan]", "values": [{"measurement": "average IC50, top CES quartile compared to bottom CES quartile", "setting": "[2]", "value": "significantly lower IC50s; also recorded: significantly more sensitive"}, {"measurement": "HR associated with high CES, overall survival", "setting": "[4]", "value": ".63"}]}
